The values that follow come from patent US9593149B2, “Amylin and calcitonin receptor agonist” (Novo Nordisk A/S, priority 2014, dated 2017).

A short description of this data set: Assay (IV) determination of solubility. The class given is physicochemical. The method, then:
Assay (IV)—Determination of Solubility
The mimylin peptide was dissolved in water at ˜500 nmol/ml and mixed 1:1 with a series of buffers (100 mM glycylglycine pH 3.0, 100 mM glycylglycine pH 4.0, 100 mM glycylglycine pH 5.0, 100 mM bistrispropane pH 6.0, 100 mM bistrispropane pH 6.5, 100 mM bistrispropane pH 7.0, 100 mM bistrispropane pH 7.5, 100 mM bistrispropane pH 8.0).

Converted amounts (≈) assume the structure as drawn. Numbered stars: 1 amine (or outer) side, 2 acyl side, 3 side chain; on linkers, the order of the positions; unused ones are H or OH. Peptide text beside a SMILES is read from it. * marks the point of attachment. C20 diacid = O=C(O)CCCCCCCCCCCCCCCCCCC(=O)*; C18 diacid = O=C(O)CCCCCCCCCCCCCCCCC(=O)*; γGlu = O=C(O)[C@H](CCC(=O)[*:2])N[*:1]

What is called solubility is how much of the substance goes into solution per volume. High values mean much dissolved substance, low ones little dissolved substance. Take `CC(C)C[C@H](NC(=O)CNC(=O)[C@H](CO)NC(=O)[C@H](C)NC(=O)[C@H](CCC(=O)O)NC(=O)CC[C@H](NC(=O)CCCCCCCCCCCCCCCCCCC(=O)O)C(=O)O)C(=O)N[C@@H](CO)C(=O)N[C@H](C(=O)N[C@@H](C)C(=O)N[C@@H](C)C(=O)N[C@@H](CC(C)C)C(=O)NCC(=O)N[C@@H](CCCNC(=N)N)C(=O)N[C@@H](CC(C)C)C(=O)N[C@@H](CO)C(=O)N[C@@H](CCC(N)=O)C(=O)N[C@@H](CCC(=O)O)C(=O)N[C@@H](CC(C)C)C(=O)N[C@@H](Cc1cnc[nH]1)C(=O)N[C@@H](CCC(=O)O)C(=O)N[C@@H](CC(C)C)C(=O)N[C@@H](CCC(N)=O)C(=O)N[C@H](C(=O)N[C@@H](Cc1ccc(O)cc1)C(=O)N1CCC[C@H]1C(=O)N[C@@H](CCCNC(=N)N)C(=O)N[C@H](C(=O)N[C@@H](CCC(=O)O)C(=O)N[C@H](C(=O)NCC(=O)N[C@@H](CO)C(=O)NCC(=O)N[C@H](C(=O)N[C@@H](Cc1ccc(O)cc1)C(N)=O)[C@@H](C)O)[C@@H](C)O)[C@@H](C)O)[C@@H](C)O)[C@@H](C)O` [compound 103, [N-terminal(C20 diacid-gGlu), 4G, 15Q, 21Q, 23Y, 30S, 31G, 32T, 33Y]mimylin] ({C20 diacid-γGlu}-EASGLSTAALGRLSQELHELQTYPRTETGSGTY-NH2): the Solubility entry is on record as “≧200 μM” (pH 3.0); “≧200 μM” (pH 4.0); “≧200 μM” (pH 6.0); “≧200 μM” (pH 6.5); “≧200 μM” (pH 7.0); “≧200 μM” (pH 7.5). For the same molecule, the Solubility entry (pH 8.0) was “≧200 μM”. Further, for the setting “pH 5.0”, the solubility at 18 h is listed as 156 µM (≈ 620 µg/mL).
As for `CC(C)C[C@H](NC(=O)CNC(=O)[C@H](CO)NC(=O)[C@H](C)NC(=O)CC[C@H](NC(=O)CCCCCCCCCCCCCCCCCCC(=O)O)C(=O)O)C(=O)N[C@@H](CO)C(=O)N[C@H](C(=O)N[C@@H](C)C(=O)N[C@H](C(=O)N[C@@H](CC(C)C)C(=O)NCC(=O)N[C@@H](CCCNC(=N)N)C(=O)N[C@@H](CC(C)C)C(=O)N[C@@H](CO)C(=O)N[C@@H](C)C(=O)N[C@@H](CCC(=O)O)C(=O)N[C@@H](CC(C)C)C(=O)N[C@@H](Cc1cnc[nH]1)C(=O)N[C@@H](CCC(=O)O)C(=O)N[C@@H](CC(C)C)C(=O)N[C@@H](C)C(=O)N[C@H](C(=O)N[C@@H](Cc1ccc(O)cc1)C(=O)N1CCC[C@H]1C(=O)N[C@@H](CCCNC(=N)N)C(=O)N[C@H](C(=O)N[C@@H](CCC(=O)O)C(=O)N[C@H](C(=O)NCC(=O)N[C@@H](CO)C(=O)NCC(=O)N[C@H](C(=O)N1CCC[C@H]1C(N)=O)[C@@H](C)O)[C@@H](C)O)[C@@H](C)O)[C@@H](C)O)C(C)C)[C@@H](C)O` [compound 98, [N-terminal(C20 diacid-gGlu), des1, 4G, 9V, 23Y, 30S, 31G, 32T]mimylin] ({C20 diacid-γGlu}-ASGLSTAVLGRLSAELHELATYPRTETGSGTP-NH2), the Solubility result reads like this: (pH 3.0) “≧200 μM”; (pH 4.0) “≧200 μM”; (pH 5.0) “≧200 μM”; (pH 6.0) “≧200 μM”; (pH 6.5) “≧200 μM”; (pH 7.0) “≧200 μM”. For the same molecule, the Solubility result (pH 7.5) is given as “≧200 μM” and the Solubility entry (pH 8.0) was “≧200 μM”.
In the case of `CC(C)C[C@H](NC(=O)CNC(=O)[C@H](CO)NC(=O)[C@H](C)NC(=O)CC[C@H](NC(=O)CCCCCCCCCCCCCCCCCCC(=O)O)C(=O)O)C(=O)N[C@@H](CO)C(=O)N[C@H](C(=O)N[C@@H](C)C(=O)N[C@H](C(=O)N[C@@H](CC(C)C)C(=O)NCC(=O)N[C@@H](CCCNC(=N)N)C(=O)N[C@@H](CC(C)C)C(=O)N[C@@H](CO)C(=O)N[C@@H](C)C(=O)N[C@@H](CCC(=O)O)C(=O)N[C@@H](CC(C)C)C(=O)N[C@@H](Cc1cnc[nH]1)C(=O)N[C@@H](CCC(=O)O)C(=O)N[C@@H](CC(C)C)C(=O)N[C@@H](C)C(=O)N[C@H](C(=O)N[C@@H](Cc1ccc(O)cc1)C(=O)N1CCC[C@H]1C(=O)N[C@@H](CCCNC(=N)N)C(=O)N[C@H](C(=O)N[C@@H](CCC(=O)O)C(=O)N[C@H](C(=O)NCC(=O)N[C@@H](CO)C(=O)NCC(=O)N[C@H](C(=O)N[C@@H](Cc1ccc(O)cc1)C(N)=O)[C@@H](C)O)[C@@H](C)O)[C@@H](C)O)[C@@H](C)O)C(C)C)[C@@H](C)O` [compound 104, [N-terminal(C20 diacid-gGlu), des1, 4G, 9V, 23Y, 30S, 31G, 32T, 33Y]mimylin] ({C20 diacid-γGlu}-ASGLSTAVLGRLSAELHELATYPRTETGSGTY-NH2), the Solubility entry is on record as “≧200 μM” (pH 3.0); “≧200 μM” (pH 4.0); “≧200 μM” (pH 6.0); “≧200 μM” (pH 6.5); “≧200 μM” (pH 7.0); “≧200 μM” (pH 7.5). For the same molecule, the Solubility entry (pH 8.0) was “≧200 μM”. Moreover, the solubility at 18 h (pH 5.0) is 119 µM (≈ 448 µg/mL).
As to `CC(C)C[C@H](NC(=O)[C@H](CCC(=O)O)NC(=O)[C@H](Cc1cnc[nH]1)NC(=O)[C@H](CC(C)C)NC(=O)[C@H](CCC(=O)O)NC(=O)[C@H](C)NC(=O)[C@H](CO)NC(=O)[C@H](CC(C)C)NC(=O)[C@H](CCCCN)NC(=O)CNC(=O)[C@H](CC(C)C)NC(=O)[C@@H](NC(=O)[C@H](C)NC(=O)[C@@H](NC(=O)[C@H](CO)NC(=O)[C@H](CC(C)C)NC(=O)[C@H](CCC(=O)O)NC(=O)[C@H](CO)NC(=O)[C@H](C)NC(=O)[C@H](CCC(=O)O)NC(=O)CCCCCCCCCCCCCCCCC(=O)O)[C@@H](C)O)C(C)C)C(=O)N[C@@H](C)C(=O)N[C@H](C(=O)N[C@@H](CC(C)C)C(=O)N1CCC[C@H]1C(=O)N[C@@H](CCCCN)C(=O)N[C@H](C(=O)N[C@@H](CCC(=O)O)C(=O)N[C@H](C(=O)NCC(=O)N1CCC[C@H]1C(=O)N[C@@H](CCC(=O)O)C(=O)N[C@@H](CO)C(=O)N1CCC[C@H]1C(N)=O)[C@@H](C)O)[C@@H](C)O)[C@@H](C)O` [compound 39, [N-terminal(C18 diacid), 9V, 12K, 25K]mimylin] ({C18 diacid}-EASELSTAVLGKLSAELHELATLPKTETGPESP-NH2), the Solubility entry by setting is: (pH 3.0) “≧200 μM”; (pH 4.0) “≧200 μM”; (pH 5.0) “≧200 μM”; (pH 6.0) “≧200 μM”; (pH 6.5) “≧200 μM”; (pH 7.0) “≧200 μM”. Besides, the Solubility result runs as follows: (pH 7.5) “≧200 μM”; (pH 8.0) “≧200 μM”.
With `CC(C)C[C@H](NC(=O)CNC(=O)[C@H](CO)NC(=O)[C@H](C)NC(=O)CC[C@H](NC(=O)CCCCCCCCCCCCCCCCCCC(=O)O)C(=O)O)C(=O)N[C@@H](CO)C(=O)N[C@H](C(=O)N[C@@H](C)C(=O)N[C@@H](C)C(=O)N[C@@H](CC(C)C)C(=O)NCC(=O)N[C@@H](CCCNC(=N)N)C(=O)N[C@@H](CC(C)C)C(=O)N[C@@H](CO)C(=O)N[C@H](C(=O)N[C@@H](CCC(=O)O)C(=O)N[C@@H](CC(C)C)C(=O)N[C@@H](Cc1cnc[nH]1)C(=O)N[C@@H](CCC(=O)O)C(=O)N[C@@H](CC(C)C)C(=O)N[C@@H](CCC(=O)O)C(=O)N[C@H](C(=O)N[C@@H](Cc1ccc(O)cc1)C(=O)N1CCC[C@H]1C(=O)N[C@@H](CCCNC(=N)N)C(=O)N[C@H](C(=O)N[C@@H](CCC(=O)O)C(=O)N[C@H](C(=O)NCC(=O)N[C@@H](CO)C(=O)NCC(=O)N[C@H](C(=O)N[C@@H](Cc1ccc(O)cc1)C(N)=O)[C@@H](C)O)[C@@H](C)O)[C@@H](C)O)[C@@H](C)O)[C@@H](C)O)[C@@H](C)O` [compound 112, [N-terminal(C20 diacid-gGlu), des1, 4G, 15T, 21E, 23Y, 30S, 31G, 32T, 33Y]mimylin] ({C20 diacid-γGlu}-ASGLSTAALGRLSTELHELETYPRTETGSGTY-NH2), the Solubility entry was “≧200 μM” (pH 3.0); “≧200 μM” (pH 6.0); “≧200 μM” (pH 6.5); “≧200 μM” (pH 7.0); “≧200 μM” (pH 7.5); “≧200 μM” (pH 8.0). In addition, the solubility at 18 h is recorded as 132 µM (≈ 505 µg/mL) (pH 4.0) and 22 µM (≈ 84.1 µg/mL) (pH 5.0).
As to `CC(C)C[C@H](NC(=O)[C@H](C)NC(=O)[C@H](C)NC(=O)[C@@H](NC(=O)[C@H](CO)NC(=O)[C@H](CC(C)C)NC(=O)[C@H](CCC(N)=O)NC(=O)[C@H](CO)NC(=O)[C@H](C)NC(=O)CC[C@H](NC(=O)CCCCCCCCCCCCCCCCC(=O)O)C(=O)O)[C@@H](C)O)C(=O)NCC(=O)N[C@@H](CCCNC(=N)N)C(=O)N[C@@H](CC(C)C)C(=O)N[C@@H](CO)C(=O)N[C@@H](C)C(=O)N[C@@H](CCC(N)=O)C(=O)N[C@@H](CC(C)C)C(=O)N[C@@H](Cc1cnc[nH]1)C(=O)N[C@@H](CCC(=O)O)C(=O)N[C@@H](CC(C)C)C(=O)N[C@@H](C)C(=O)N[C@H](C(=O)N[C@@H](CC(C)C)C(=O)N1CCC[C@H]1C(=O)N[C@@H](CCCNC(=N)N)C(=O)N[C@H](C(=O)N[C@@H](CCC(=O)O)C(=O)N[C@H](C(=O)NCC(=O)N[C@@H](CO)C(=O)NCC(=O)N[C@@H](CO)C(=O)N1CCC[C@H]1C(N)=O)[C@@H](C)O)[C@@H](C)O)[C@@H](C)O` [compound 87, [N-terminal(C18 diacid-gGlu), des1, 4Q, 16Q, 30S, 31G]mimylin] ({C18 diacid-γGlu}-ASQLSTAALGRLSAQLHELATLPRTETGSGSP-NH2), the Solubility entry is, setting by setting: (pH 3) “≧200 μM”; (pH 4) “≧200 μM”; (pH 5) “≧200 μM”; (pH 6) “≧200 μM”; (pH 6.5) “≧200 μM”; (pH 7) “≧200 μM”. Besides, the Solubility result is “≧200 μM” (pH 7.5) and “≧200 μM” (pH 8).
